Laboratory results from patent publication US9968089B2, “Microbicidal composition” (Dow Global Technologies LLC, priority 2013, dated 2018).
Where two headings read alike, the source gives them in different places.

Columns and labels:
Assay in all cases: MIC and synergy index test in 96 well microtiter plates
Format in all cases: cell-based
[1] = system: Pseudomonas aeruginosa ATCC #15442; conditions: 1/10 TSB
Method: Surfactants and biocides were evaluated for synergy by determining the synergy index (S.I.) of the combination. Synergy index was calculated based on minimum inhibitory concentrations (MIC) of two antimicrobial compounds (A and B) alone and in combinations. The tests organisms were Gram negative bacteria (Pseudomonas aeruginosa ATCC #15442), Gram positive bacteria (Staphylococcus aureus ATCC #6538), yeast (Candida albicans ATCC#10203) and mold (Aspergillus niger ATCC#16404). […] The test was carried out in 96 well microtiter plates. • Surf. A R^1O(CH2CH(CH3)O)5(CH2CH2O)9H, where R^1 is 2-ethylhexyl • Surf. D R^2O(CH2CH(CH3)O)3(CH2CH2O)5H • Surf. E R^2O(CH2CH(CH3)O)3(CH2CH2O)7H • In Surf. D and Surf. E, R^2 is a mixture of C8-C14 linear alkyl groups (70% C8-C10 linear alkyl and 30% C12-C14 linear alkyl)
(§1) The pH of the Triptic soy broth was 7.3 and the Potato dextrose broth was 5.1.
(§2) SI is calculated as follows: Ca/CA+Cb/CB=Synergy Index(“SI”)
(§3) Wherein: • CA=concentration of compound A in ppm, acting alone, which produced an end point (MIC of Compound A). • Ca=concentration of compound A in ppm, in the mixture, which produced an end point. • CB=concentration of compound B in ppm, acting alone, which produced an end point (MIC of Compound B). • Cb=concentration of compound B in ppm, in the mixture, which produced an end point.
(§4) When the sum of Ca/CA and Cb/CB is greater than one, antagonism is indicated.

[2] = system: Candida albicans ATCC#10203; conditions: PDB
Method: (§5) Surfactants and biocides were evaluated for synergy by determining the synergy index (S.I.) of the combination. Synergy index was calculated based on minimum inhibitory concentrations (MIC) of two antimicrobial compounds (A and B) alone and in combinations. The tests organisms were Gram negative bacteria (Pseudomonas aeruginosa ATCC #15442), Gram positive bacteria (Staphylococcus aureus ATCC #6538), yeast (Candida albicans ATCC#10203) and mold (Aspergillus niger ATCC#16404). Contact time for the bacteria was 24 and 48 hours, yeast was 48 and 72 hrs, and 3 and 7 days for mold. The test was carried out in 96 well microtiter plates. • Surf. A R^1O(CH2CH(CH3)O)5(CH2CH2O)9H, where R^1 is 2-ethylhexyl • Surf. D R^2O(CH2CH(CH3)O)3(CH2CH2O)5H • Surf. E R^2O(CH2CH(CH3)O)3(CH2CH2O)7H • In Surf. D and Surf. E, R^2 is a mixture of C8-C14 linear alkyl groups (70% C8-C10 linear alkyl and 30% C12-C14 linear alkyl)
as §1, §2, §3, §4

[3] = system: Staphylococcus aureus ATCC #6538; conditions: ATCC6538, 24 h
Method: as §5, §1, §2, §3, §4

[4] = system: Aspergillus niger ATCC#16404; conditions: PDB
Method: as §5, §1, §2, §3, §4

**Q.** With `Cl/C=C\C[N+]12CN3CN(CN(C3)C1)C2.[Cl-]` [CTAC, cis-1-(3-chloroallyl)-3,5,7-triaza-1-azoniaadamantane chloride] as the molecule, how does the MIC ([1]; ATCC15442, 72 h, A: Surf. A, B: CTAC, P. aeruginosa ATCC#15442, 3rd Day, inoculum 1.156E+06, read-out: CB (MIC of compound B acting alone)) read?
**A.** 600 µg/mL

**Q.** What about the MIC ([2]; ATCC10203, 48 h, A: Surf. D, B: CTAC, C. albicans ATCC#10203, 48 hrs, inoculum 5.726E+05 CFU/ml, read-out: CB (MIC of compound B acting alone)) of the same molecule?
**A.** 1000 µg/mL

**Q.** And the MIC ([2]; ATCC10203, 48 h, A: Surf. E, B: CTAC, C. albicans ATCC 10203, 48 hrs, inoculum 1.808E+05, read-out: CB (MIC of compound B acting alone))?
**A.** 3000 µg/mL

**Q.** And the MIC ([3]; A: Surf. D, B: CTAC, S. aureus ATCC# 6538, 24 hrs, 1/10 TSB, inoculum 1.808E+05, read-out: CB (MIC of compound B acting alone))?
**A.** 300 µg/mL

**Q.** And the MIC ([3]; A: Surf. E, B: CTAC, S. aureus ATCC# 6538, 24 hrs, 1/10 TSB, inoculum 1.8E+06, read-out: CB (MIC of compound B acting alone))?
**A.** 200 µg/mL

**Q.** And the MIC ([4]; ATCC16404, A: Surf. D, B: CTAC, A. niger ATCC#16404, 3rd day, inoculum 1.156E+06, read-out: CB (MIC of compound B acting alone))?
**A.** 1000 µg/mL

**Q.** For `CC1(C)COCN1` [DMO, 4,4-dimethyloxazolidine], which MIC ([1]; ATCC15442, 24 h, A: Surf. A, B: DMO, P. aeruginosa ATCC#15442, 24 hrs, inoculum 8.134+07 CFU/ml, read-out: CB (MIC of compound B acting alone)) is on record?
**A.** 80 µg/mL

**Q.** What about the MIC ([2]; ATCC10203, 48 h, A: Surf. E, B: DMO, C. albicans ATCC#10203, 48 hrs, inoculum 1808E+06, read-out: CB (MIC of compound B acting alone)) of the same molecule?
**A.** 1000 µg/mL

**Q.** And the MIC ([2]; ATCC 10203 / ATCC 10231, 48 h, A: Surf. D, B: DMO, C. albicans ATCC#10231, 48 hrs, inoculum 5.726E+05 CFU/ml, read-out: CB (MIC of compound B acting alone))?
**A.** 1000 µg/mL

**Q.** And the MIC ([2]; ATCC 10203 / ATCC 10231, A: Surf. A, B: DMO, C. albicans ATCC#10231, 3rd Day, inoculum 1.156E+06 CFU/ml, read-out: CB (MIC of compound B acting alone))?
**A.** 1000 µg/mL

**Q.** And the MIC ([3]; A: Surf. D, B: 1135, S. aureus ATCC#6538, 24 hrs, 1/10 TSB, inoculum 1.16E+08, read-out: CB (MIC of compound B acting alone))?
**A.** 80 µg/mL

**Q.** And the MIC ([3]; A: Surf. E, B: DMO, ATCC# 6538, 24 hrs, 1/10 TSB, inoculum 1.80E+06 CFU/ml, read-out: CB (MIC of compound B acting alone))?
**A.** 80 µg/mL

**Q.** What about the MIC ([3]; read-out: CB (MIC of compound B acting alone)) of the same molecule?
**A.** 50 µg/mL

**Q.** What about the MIC ([4]; ATCC16404, A: Surf. A, B: DMO, A. niger ATCC#16404, 3rd Day, inoculum 1.156E+06 CFU/ml, read-out: CB (MIC of compound B acting alone)) of the same molecule?
**A.** 60 µg/mL

**Q.** And the MIC ([4]; ATCC16404, A: Surf. D, B: DMO, A. niger ATCC# 16404, 3rd day, inoculum 1.156E+06, read-out: CB (MIC of compound B acting alone))?
**A.** 400 µg/mL

**Q.** What about the MIC ([4]; ATCC16404, A: Surf. E, B: DMO, A. niger ATCC#16404, 3rd Day, inoculum 1.56E+06 CFU/ml, read-out: CB (MIC of compound B acting alone)) of the same molecule?
**A.** 800 µg/mL

**Q.** `O=[N+]([O-])C(CO)(CO)CO` [Tris Nitro, tris(hydroxymethyl)nitromethane] was tested. Which MIC ([1]; ATCC15442, 24 h, A: Surf. D, B: TrisNitro, Ps. aeruginosa ATCC#15442, 24 hrs, inoculum 1.16E+08, read-out: CB (MIC of compound B acting alone)) did it give?
**A.** 800 µg/mL

**Q.** What about the MIC ([1]; ATCC15442, 24 h, A: Surf. E, B: TrisNitro, Ps. aeruginosa ATCC#15442, 24 hrs, inoculum 5.727E+07 CFU/ml, read-out: CB (MIC of compound B acting alone)) of the same molecule?
**A.** 1000 µg/mL

**Q.** And the MIC ([3]; A: Surf. E, B: TrisNitro, S. aureus ATCC# 6538, 24 hrs, 1/10 TSB, inoculum 1.808E+06 CFU/ml, read-out: CB (MIC of compound B acting alone))?
**A.** 500 µg/mL
